Consider three compounds from publication PMC4122355, “Inhibitor of the Tyrosine Phosphatase STEP Reverses Cognitive Deficits in a Mouse Model of Alzheimer's Disease” (PLoS Biology, 2014).

Like-named read-outs stand apart in the source and are kept apart here.

Data set [1] has as its system GluN2B (Y1472), Pyk2 (Y402), ERK1/2 (Y204/187) in cortical neurons. In words: Tyr phosphorylation of STEP substrates in cortical neuronal cultures (Western blot). Format: cell-based, rat. The conditions noted are these: 1 µM dose, 1 h, relative to vehicle. The procedure: (§1) Primary cortical neurons were isolated from Sprague Dawley rat embryos (E18) (Charles River Laboratories, Wilmington, MA) as previously described. In some experiments, cortical neurons were made from WT and STEP KO mouse embryos (E18). Neurons were allowed to grow for 18–21 d in CO2 incubator before addition of compounds at indicated doses for 1 h. Immediately following treatments, neurons were lysed in RadioImmuno Precipitation Assay (RIPA) buffer supplied with protease inhibitor cocktail (Roche Applied Science, Indianapolis, IN) and phosphatase inhibitors (NaF and Na3VO4). All experiments were replicated four times with four independent batches of cultures.
(§2) Samples were prepared and resolved by SDS-PAGE, transferred to nitrocellulose membrane, and incubated with phospho-specific antibodies (anti-pY^204/187 ERK1/2, anti-pY^402 Pyk2, anti-pY^1472 GluN2B) or total protein antibodies (anti-ERK2, anti-Pyk2, and anti-NR2B) overnight at 4°C. Immunoreactivity was visualized using a Chemiluminescent substrate kit (Pierce Biotechnology, Rockford, IL) and detected using a G:BOX with the image program GeneSnap (Syngene, Cambridge, UK). All densitometric quantifications were performed using the Genetools program.
In general terms: A western blot detects proteins with antibodies after separation by electrophoresis.

The test system of data set [2] is GluN2B (Y1472), Pyk2 (Y402), ERK1/2 (Y204/187) in cortex. The data set is described as follows: Tyr phosphorylation of STEP substrates in cortex of WT mice after i.p. injection. Format: in vivo, mouse. Conditions: C57BL/6 mice, 1 mg/kg i.p., 3 h postinjection, relative to vehicle. The procedure:
Wild-type, male C57BL/6 mice (3–6 mo) were used for all studies. […] Cortical tissues were dissected out 3 h postinjection and processed for subcellular fractionation. […] Homogenates were centrifuged at 800 × g to remove nuclei and large debris (P1). Synaptosomal fractions (P2) were prepared from S1 by centrifugation at 9,200 × g for 15 min. The P2 pellet was washed twice and was resuspended in TEVP buffer. […] Samples were prepared and resolved by SDS-PAGE, transferred to nitrocellulose membrane, and incubated with phospho-specific antibodies (anti-pY^204/187 ERK1/2, anti-pY^402 Pyk2, anti-pY^1472 GluN2B) or total protein antibodies (anti-ERK2, anti-Pyk2, and anti-NR2B) overnight at 4°C. Immunoreactivity was visualized using a Chemiluminescent substrate kit (Pierce Biotechnology, Rockford, IL) and detected using a G:BOX with the image program GeneSnap (Syngene, Cambridge, UK). All densitometric quantifications were performed using the Genetools program.

The conditions of data set [3]: cited from earlier work.
The test system of data set [4] is GluN2B Y1472, Pyk2 Y402, ERK1/2 Y204/187 in WT and STEP KO cortical neurons. The data set is described as follows: Tyr phosphorylation of STEP substrates in WT and STEP KO mouse cortical cultures. Format: cell-based. Conditions: STEP KO cultures, 1 h; TC-2153 0.1 and 1 µM, Na3VO4 1 mM. The procedure:
as §1, §2

Regarding `S1SSSSSSS1` [Compound S8, sulfur (S8)], in data set [1], the “pERK1/2 (Y204/187), phospho-signal normalized to total protein and GAPDH” value was 1.67±0.14; the “pGluN2B (Y1472), phospho-signal normalized to total protein and GAPDH” value came out at 1.33±0.08; the “pPyk2 (Y402), phospho-signal normalized to total protein and GAPDH” value came to 1.49±0.12. Besides, in data set [2], the “pERK1/2 in cortex (P2 fraction)” value turned out to be 1.57±0.13, the “pGluN2B in cortex (P2 fraction)” value was determined as 1.31±0.11 and the “pPyk2 in cortex (P2 fraction)” value worked out at 1.46±0.14. The “Solubility in aqueous solution” value in data set [3] (stated without reference) is “poorly soluble”.
In the case of `[Na+].[Na+].[Na+].[O]=[V]([O-])([O-])[O-]` [sodium orthovanadate, reference compound], the “Tyr phosphorylation of STEP substrates in STEP KO cortical cultures” value in data set [4] is listed as “further increased the Tyr phosphorylation of these substrates”.
`COc1cc(CCN)c2c(c1OC)SSSSS2` [varacin, reference compound]: the “Solubility in aqueous solution” value in data set [3] is listed as “reasonable solubility in aqueous solution”.
